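Five concentrations, 48 hours, 96-well plates. The concentration for 50% growth inhibition is given as GI50.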 Active and inactive are the calls of the source. Cut-off read from the data, not from the text of the source: active = GI50 up to about 1.1 µM and inactive = higher.
Columns and labels:
Test in all cases: inhibition of tumour cell growth, NCI panel, 48 h
ACHN = system: ACHN
BT-549 = system: BT-549
CAKI-1 = system: CAKI-1
COLO 205 = system: COLO 205
EKVX = system: EKVX
HCC 2998 = system: HCC 2998
HCT-116 = system: HCT-116
HOP-92 = system: HOP-92
LOX IMVI = system: LOX IMVI
MDA-MB-435 = system: MDA-MB-435
NCI-H226 = system: NCI-H226
NCI-H23 = system: NCI-H23
NCI-H460 = system: NCI-H460
NCI-H522 = system: NCI-H522
NCI/ADR-RES = system: NCI/ADR-RES
OVCAR-8 = system: OVCAR-8
SF-539 = system: SF-539
SNB-75 = system: SNB-75
T47D = system: T47D
UO-31 = system: UO-31

Measured: GI50

c1ccc(CNCCCNCCCCNCCCNCc2ccccc2)cc1
inactive: ACHN 6.05 µM | BT-549 16.7 µM | CAKI-1 10.3 µM | COLO 205 1.82 µM | EKVX 9.42 µM | HCC 2998 5.66 µM | HCT-116 2.94 µM | HOP-92 1.42 µM | LOX IMVI 3.15 µM | MDA-MB-435 4.22 µM | NCI-H226 4.68 µM | NCI-H23 2.38 µM | NCI-H460 6.27 µM | NCI-H522 1.57 µM | NCI/ADR-RES 38.7 µM | OVCAR-8 12.8 µM | SF-539 1.76 µM | SNB-75 8.91 µM | T47D 10.8 µM | UO-31 12.2 µM

CO[C@H](c1ccccc1)[C@H](O)[C@](O)(c1ccccc1)P(=O)(OC)OC
inactive: ACHN > 100 µM | BT-549 > 100 µM | CAKI-1 > 100 µM | COLO 205 > 100 µM | EKVX > 100 µM | HCC 2998 > 100 µM | HCT-116 > 100 µM | HOP-92 > 100 µM | LOX IMVI > 100 µM | MDA-MB-435 > 100 µM | NCI-H226 > 100 µM | NCI-H23 > 100 µM | NCI-H460 > 100 µM | NCI-H522 > 100 µM | NCI/ADR-RES > 100 µM | OVCAR-8 > 100 µM | SF-539 > 100 µM | SNB-75 > 100 µM | T47D > 100 µM | UO-31 > 100 µM

CSc1nc(C)cc(Nc2ccc(O)c(CN3CCOCC3)c2)n1
inactive: ACHN > 100 µM | BT-549 > 100 µM | CAKI-1 > 100 µM | COLO 205 > 100 µM | EKVX 83 µM | HCC 2998 > 100 µM | HCT-116 > 100 µM | HOP-92 62.8 µM | LOX IMVI > 100 µM | MDA-MB-435 > 100 µM | NCI-H226 > 100 µM | NCI-H23 > 100 µM | NCI-H460 > 100 µM | NCI-H522 > 100 µM | NCI/ADR-RES > 100 µM | OVCAR-8 > 100 µM | SF-539 > 100 µM | SNB-75 > 100 µM | T47D 71.9 µM | UO-31 71 µM

Cc1ccc2c(n1)C(=O)C=CC2=O
inactive: ACHN 2.89 µM | BT-549 16.5 µM | CAKI-1 2.02 µM | COLO 205 2.14 µM | EKVX 7.03 µM | HCC 2998 16.3 µM | HCT-116 1.97 µM | HOP-92 3.9 µM | LOX IMVI 4.88 µM | MDA-MB-435 17.2 µM | NCI-H226 19.6 µM | NCI-H23 15.7 µM | NCI-H460 17.4 µM | NCI-H522 1.91 µM | NCI/ADR-RES 18.1 µM | OVCAR-8 15.1 µM | SF-539 16.5 µM | SNB-75 19.4 µM | T47D 1.88 µM | UO-31 5.46 µM

COc1ccc2c(c1)O[C@@H]1[C@@H](OC3OC(CO)C(O)C(O)C3O)Oc3cc(OC)c(OC)cc3[C@]1(O)C2=O (stereo not given in full)
inactive: ACHN > 100 µM | BT-549 > 100 µM | CAKI-1 > 100 µM | COLO 205 > 100 µM | EKVX > 100 µM | HCC 2998 > 100 µM | HCT-116 > 100 µM | HOP-92 > 100 µM | LOX IMVI > 100 µM | MDA-MB-435 > 100 µM | NCI-H226 34 µM | NCI-H23 > 100 µM | NCI-H460 > 100 µM | NCI-H522 > 100 µM | NCI/ADR-RES > 100 µM | OVCAR-8 > 100 µM | SF-539 > 100 µM | SNB-75 > 100 µM | T47D > 100 µM | UO-31 > 100 µM

Cc1ccc(Nc2nc3[nH]ccc3c(=O)[nH]2)cc1
inactive: ACHN > 100 µM | BT-549 70.3 µM | CAKI-1 85.5 µM | COLO 205 > 100 µM | EKVX 76.2 µM | HCC 2998 71.6 µM | HCT-116 > 100 µM | HOP-92 > 100 µM | LOX IMVI > 100 µM | MDA-MB-435 > 100 µM | NCI-H226 > 100 µM | NCI-H23 > 100 µM | NCI-H460 > 100 µM | NCI-H522 > 100 µM | NCI/ADR-RES > 100 µM | OVCAR-8 > 100 µM | SF-539 > 100 µM | SNB-75 2.24 µM | T47D 56.1 µM | UO-31 57.3 µM

Cc1ccc(S(=O)(=O)/N=C2/N(C)CCCS2(=O)=O)cc1
inactive: ACHN > 100 µM | BT-549 > 100 µM | CAKI-1 > 100 µM | COLO 205 > 100 µM | EKVX > 100 µM | HCC 2998 > 100 µM | HCT-116 > 100 µM | HOP-92 > 100 µM | LOX IMVI > 100 µM | MDA-MB-435 > 100 µM | NCI-H226 > 100 µM | NCI-H23 > 100 µM | NCI-H460 > 100 µM | NCI-H522 > 100 µM | NCI/ADR-RES > 100 µM | OVCAR-8 > 100 µM | SF-539 > 100 µM | SNB-75 > 100 µM | T47D > 100 µM | UO-31 > 100 µM

C=CCN(c1cc(OCc2ccccc2)c2c(c(C)cn2S(=O)(=O)c2ccc([N+](=O)[O-])cc2)c1[N+](=O)[O-])S(C)(=O)=O
inactive: ACHN > 100 µM | BT-549 > 100 µM | CAKI-1 > 100 µM | COLO 205 > 100 µM | EKVX > 100 µM | HCC 2998 > 100 µM | HCT-116 > 100 µM | HOP-92 > 100 µM | LOX IMVI > 100 µM | MDA-MB-435 1.47 µM | NCI-H226 > 100 µM | NCI-H23 > 100 µM | NCI-H460 > 100 µM | NCI-H522 > 100 µM | NCI/ADR-RES > 100 µM | OVCAR-8 > 100 µM | SF-539 > 100 µM | SNB-75 > 37.8 µM | T47D > 100 µM | UO-31 > 100 µM

COC(OC)C1OCC(n2cc(F)c(=O)[nH]c2=O)C1O (stereo not given)
inactive: ACHN > 100 µM | BT-549 > 100 µM | CAKI-1 > 100 µM | COLO 205 > 100 µM | EKVX > 100 µM | HCC 2998 > 100 µM | HCT-116 > 100 µM | HOP-92 > 100 µM | LOX IMVI > 100 µM | MDA-MB-435 > 100 µM | NCI-H226 > 100 µM | NCI-H23 > 100 µM | NCI-H460 > 100 µM | NCI-H522 > 100 µM | NCI/ADR-RES > 100 µM | OVCAR-8 > 100 µM | SF-539 > 100 µM | SNB-75 > 100 µM | T47D > 100 µM | UO-31 > 100 µM

COc1cccc(/C=C2\N=C(c3ccccc3)OC2=O)c1
inactive: ACHN > 100 µM | BT-549 40.6 µM | CAKI-1 > 100 µM | COLO 205 85.1 µM | EKVX > 100 µM | HCC 2998 49.7 µM | HCT-116 > 100 µM | HOP-92 > 100 µM | LOX IMVI 26.4 µM | MDA-MB-435 > 100 µM | NCI-H226 37.8 µM | NCI-H23 > 100 µM | NCI-H460 50.7 µM | NCI-H522 12.3 µM | NCI/ADR-RES 25.8 µM | OVCAR-8 64.4 µM | SF-539 43.1 µM | SNB-75 16.1 µM | T47D > 100 µM | UO-31 > 100 µM

— ChEMBL document CHEMBL1201862, “PubChem BioAssay data set” (2004)
